The target in the assay is T1, ATP-sensitive inward rectifier potassium channel 11 (Homo sapiens, UniProt Q14654).
T1 sequence (Q14654 whole entry): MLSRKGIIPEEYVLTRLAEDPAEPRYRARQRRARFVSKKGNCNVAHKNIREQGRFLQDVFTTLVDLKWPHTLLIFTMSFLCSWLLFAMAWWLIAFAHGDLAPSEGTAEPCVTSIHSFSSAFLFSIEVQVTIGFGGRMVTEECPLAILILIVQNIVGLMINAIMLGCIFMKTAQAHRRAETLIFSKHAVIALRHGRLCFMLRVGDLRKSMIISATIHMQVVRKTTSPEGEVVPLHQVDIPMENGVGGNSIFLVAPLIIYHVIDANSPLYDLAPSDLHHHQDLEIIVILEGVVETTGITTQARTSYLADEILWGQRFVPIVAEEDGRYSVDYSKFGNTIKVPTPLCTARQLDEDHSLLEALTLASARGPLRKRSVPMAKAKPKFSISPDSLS
Nature of the assay: Channel opening activity at human bladder Kir6.2 channel containing SUR2B expressed in L cells by FLIPR assay.

As for `CC(Cl)(Cl)C(NC(=O)c1ccc(F)cc1)N/C(=N/C#N)Nc1ccc(C(F)(F)F)nc1` (stereo unspecified), a half-maximal response (EC50) required 2.09 µM. This counts as single-digit micromolar.
For `CC(Cl)(Cl)C(NC(=O)c1cccc(F)c1)N/C(=N/C#N)Nc1ccc(C(F)(F)F)nc1` (stereo unspecified) the value was 2.29 µM; for `CC(Cl)(Cl)C(NC(=O)c1ccc(OC(F)(F)F)cc1)N/C(=N/C#N)Nc1cncc(Br)c1` (stereo unspecified), > 100 µM; for `Cc1ccc(C(=O)NC(N/C(=N/C#N)Nc2ccc(F)nc2)C(C)(Cl)Cl)cc1` (stereo unspecified), 4.27 µM.
In the case of `Cc1cccc(C(=O)NC(N/C(=N/C#N)Nc2ccc(C(F)(F)F)nc2)C(C)(Cl)Cl)c1` (stereo unspecified), the 50% effective concentration (EC50) was found to be 2.57 µM. This EC50 lies about 1.7-fold lower than the previous one.
Then `CC(Cl)(Cl)C(NC(=O)c1cc(Cl)cc(Cl)c1)N/C(=N/C#N)Nc1ccc(Cl)nc1` (stereo unspecified), with 0.813 µM; and `Cc1ccc(C(=O)NC(N/C(=N/C#N)Nc2cncc(Br)c2)C(C)(Cl)Cl)cc1` (stereo unspecified), with 1.32 µM.
For `COc1ccc(N/C(=N\C#N)NC(NC(=O)c2ccc(Cl)cc2)C(C)(Cl)Cl)cn1` (stereo unspecified) the value was 10.5 µM.
Then `Cc1ccc(C(=O)NC(N/C(=N/C#N)Nc2ccc(C(F)(F)F)nc2)C(C)(Cl)Cl)cc1` (stereo unspecified), with 3.8 µM; and `CC(Cl)(Cl)C(NC(=O)c1cccs1)N/C(=N/C#N)Nc1cncc(Br)c1` (stereo unspecified), with 1.29 µM; and `CC(Cl)(Cl)C(NC(=O)c1ccc(I)cc1)N/C(=N/C#N)Nc1ccc(Cl)nc1` (stereo unspecified), with 0.891 µM.
`CC(Cl)(Cl)C(NC(=O)c1cc(F)cc(F)c1)N/C(=N/C#N)Nc1ccc(Cl)nc1` (stereo unspecified): the EC50 was determined as 1.1 µM.
As for `Cc1ccc(N/C(=N\C#N)NC(NC(=O)c2ccc(Cl)cc2)C(C)(Cl)Cl)cn1` (stereo unspecified), the response was half-maximal at 2.24 µM (EC50).
For `CC(Cl)(Cl)C(NC(=O)c1cccs1)N/C(=N/C#N)Nc1ccc(Cl)nc1` (stereo unspecified), the EC50 was determined as 2.75 µM.
For `CC(Cl)(Cl)C(NC(=O)c1ccc(Cl)cc1)N/C(=N/C#N)Nc1ccccc1F` (stereo unspecified) the value was 12 µM; for `CC(Cl)(Cl)C(NC(=O)c1cccc(Cl)c1)N/C(=N/C#N)Nc1ccc(F)nc1` (stereo unspecified), 2.29 µM; for `CC(Cl)(Cl)C(NC(=O)c1ccccc1)N/C(=N/C#N)Nc1ccc(Cl)nc1` (stereo unspecified), 2.04 µM.
For the compound `Cc1cccc(C(=O)NC(N/C(=N/C#N)Nc2cncc(Br)c2)C(C)(Cl)Cl)c1` (stereo unspecified), the midpoint of the response, the EC50, lay at 1.66 µM.
Turning to `CC(Cl)(Cl)C(NC(=O)c1cccs1)N/C(=N/C#N)Nc1ccc(C(F)(F)F)nc1` (stereo unspecified), the EC50 was 1.74 µM.
For `CC(Cl)(Cl)C(NC(=O)c1cccs1)N/C(=N/C#N)Nc1ccc(F)nc1` (stereo unspecified) the value was 4.57 µM; for `CC(Cl)(Cl)C(NC(=O)c1ccc(F)cc1)N/C(=N/C#N)Nc1ccc(F)nc1` (stereo unspecified), 11.7 µM.
Regarding `CC(Cl)(Cl)C(NC(=O)c1ccc(C(F)(F)F)cc1)N/C(=N/C#N)Nc1ccc(C(F)(F)F)nc1` (stereo unspecified), the EC50 was 26.9 µM.
Then `CC(Cl)(Cl)C(NC(=O)c1cc(Cl)cc(Cl)c1)N/C(=N/C#N)Nc1cncc(Br)c1` (stereo unspecified), with 2.63 µM; and `CC(Cl)(Cl)C(NC(=O)c1cc(Cl)cc(Cl)c1)N/C(=N/C#N)Nc1ccc(F)nc1` (stereo unspecified), with 2.04 µM.
As to `CC(Cl)(Cl)[C@@H](NC(=O)c1ccc(Cl)cc1)N/C(=N/C#N)Nc1cccnc1`, the midpoint of the response, the EC50, lay at 0.339 µM.
`Cc1nc(C(F)(F)F)ccc1N/C(=N\C#N)NC(NC(=O)c1ccc(Cl)cc1)C(C)(Cl)Cl` (stereo unspecified): the EC50 was determined as 9.55 µM.
Then `CC(Cl)(Cl)C(NC(=O)c1ccc(OC(F)(F)F)cc1)N/C(=N/C#N)Nc1ccc(F)nc1` (stereo unspecified), with 8.91 µM.
`CC(Cl)(Cl)C(NC(=O)c1cc(F)cc(F)c1)N/C(=N/C#N)Nc1ccc(C(F)(F)F)nc1` (stereo unspecified) came in with an EC50 of 1.18 µM.
For `CC(Cl)(Cl)C(NC(=O)c1ccc(Br)cc1)N/C(=N/C#N)Nc1ccc(C(F)(F)F)nc1` (stereo unspecified) the value was > 100 µM; for `CC(Cl)(Cl)C(NC(=O)c1ccc(I)cc1)N/C(=N/C#N)Nc1ccc(C(F)(F)F)nc1` (stereo unspecified), 7.76 µM.
For `COc1ncccc1NC(=NC#N)NC(NC(=O)c1ccc(Cl)cc1)C(C)(Cl)Cl` (stereo unspecified) the value was 9.77 µM; for `Cc1cccc(C(=O)NC(N/C(=N/C#N)Nc2ccc(Cl)nc2)C(C)(Cl)Cl)c1` (stereo unspecified), 1.7 µM; for `CC(Cl)(Cl)C(NC(=O)c1cc(Cl)cc(Cl)c1)N/C(=N/C#N)Nc1ccc(C(F)(F)F)nc1` (stereo unspecified), 3.71 µM.
For `CC(Cl)(Cl)C(NC(=O)c1ccc(F)cc1)N/C(=N/C#N)Nc1cncc(Br)c1` (stereo unspecified), the EC50 came out at 0.955 µM.
Take `CC(Cl)(Cl)C(NC(=O)c1ccc(OC(F)(F)F)cc1)N/C(=N/C#N)Nc1ccc(Cl)nc1` (stereo unspecified): the response was half-maximal at 5.37 µM (EC50).
Then `CC(Cl)(Cl)C(NC(=O)c1ccc(Cl)cc1)N/C(=N/C#N)Nc1cncc(Br)c1` (stereo unspecified), with 0.646 µM.
Then `CC(Cl)(Cl)C(NC(=O)c1cccc(Cl)c1)N/C(=N/C#N)Nc1ccc(C(F)(F)F)nc1` (stereo unspecified), with 6.76 µM; and `CC(Cl)(Cl)C(NC(=O)c1ccc(Br)cc1)N/C(=N/C#N)Nc1ccc(Cl)nc1` (stereo unspecified), with 0.537 µM; and `CC(Cl)(Cl)C(NC(=O)c1cccc(Cl)c1)N/C(=N/C#N)Nc1ccc(Cl)nc1` (stereo unspecified), with 1.66 µM.
In turn, `CC(Cl)(Cl)C(NC(=O)c1cccc(F)c1)N/C(=N/C#N)Nc1ccc(Cl)nc1` (stereo unspecified) displayed an EC50 of 5.37 µM.
`Cc1ccc(C(=O)NC(N/C(=N/C#N)Nc2ccc(Cl)nc2)C(C)(Cl)Cl)cc1` (stereo unspecified) had an EC50 of 0.912 µM.
Then `Cc1cccc(C(=O)NC(N/C(=N/C#N)Nc2ccc(F)nc2)C(C)(Cl)Cl)c1` (stereo unspecified), with 4.27 µM; and `COc1cc(OC)cc(C(=O)NC(N/C(=N/C#N)Nc2ccc(Cl)nc2)C(C)(Cl)Cl)c1` (stereo unspecified), with 8.91 µM.
As to `Cc1cncc(N/C(=N\C#N)NC(NC(=O)c2ccc(Cl)cc2)C(C)(Cl)Cl)c1` (stereo unspecified), the EC50 came to 0.759 µM.
With `CC(Cl)(Cl)C(NC(=O)c1ccc(C(F)(F)F)cc1)N/C(=N/C#N)Nc1ccc(Cl)nc1` (stereo unspecified), the response was half-maximal at 5.01 µM (EC50).
`CC(Cl)(Cl)C(NC(=O)c1ccc(Cl)cc1)N/C(=N/C#N)Nc1ccc(F)nc1` (stereo unspecified) registered an EC50 of 1.51 µM.
Regarding `CC(Cl)(Cl)[C@H](NC(=O)c1ccc(Cl)cc1)N/C(=N/C#N)Nc1ccc(Cl)nc1`, it took 2.14 µM to reach a half-maximal effect (EC50).
Then `CC(Cl)(Cl)C(NC(=O)c1cc(F)cc(F)c1)N/C(=N/C#N)Nc1ccc(F)nc1` (stereo unspecified), with 4.27 µM; and `CC(Cl)(Cl)C(NC(=O)c1cc(F)cc(F)c1)N/C(=N/C#N)Nc1cncc(Br)c1` (stereo unspecified), with 1.1 µM.
For `CC(Cl)(Cl)C(NC(=O)c1ccc(Cl)cc1)N/C(=N/C#N)Nc1ccc(Cl)nc1` (stereo unspecified) the value was 0.457 µM; for `CC(Cl)(Cl)C(NC(=O)c1ccc(F)cc1)N/C(=N/C#N)Nc1ccc(Cl)nc1` (stereo unspecified), 1.29 µM; for `CC(Cl)(Cl)[C@@H](NC(=O)c1ccc(Cl)cc1)N/C(=N/C#N)Nc1ccc(Cl)nc1`, 1.07 µM.
For `CC(Cl)(Cl)C(NC(=O)c1cccc(Cl)c1)N/C(=N/C#N)Nc1cncc(Br)c1` (stereo unspecified) the value was 0.776 µM; for `CC(Cl)(Cl)C(NC(=O)c1ccc(Cl)cc1)NC(=NC#N)Nc1cccnc1Cl` (stereo unspecified), 6.03 µM; for `CC(Cl)(Cl)C(NC(=O)c1ccc(Cl)cc1)N/C(=N/C#N)Nc1ccc(C(F)(F)F)nc1` (stereo unspecified), 1.62 µM.
In turn, `COc1cnccc1C(=O)NC(N/C(=N/C#N)Nc1ccc(Cl)nc1)C(C)(Cl)Cl` (stereo unspecified) showed an EC50 of 6.61 µM. This EC50 lies about 4.1-fold higher than the previous one.

Values taken from BindingDB's records for doi:10.1021/jm7010194 (Abbott Laboratories, 2007).
